One may read the melting point as the temperature of the solid-liquid transition. In the case of `O=C(NC(NC(=S)Nc1ccccc1)C(F)(F)F)c1ccc(Cl)cc1` (stereo not given), the melting point was 198 to 201 °C.
In the case of `O=C(c1ccc(-c2ccc(C(CC3CCOCC3)c3ccc(S(=O)(=O)C4CC4)cc3)[nH]2)nc1)N1CCOCC1` (stereo not given), the melting point was in the range of 114 to 116 °C.
Molecule `O=C1OCC(c2ccc(Cl)cc2)C1CSCc1ccccc1` (stereo not given) showed a melting point of 66 to 69 °C.
`COC(=O)c1coc(-c2ncn3c2CN(C)C(=O)c2c(Cl)cccc2-3)n1`: the melting point fell in the range of 266 to 268 °C.
The figure for `CCCS(=O)(=O)c1cc(C(C)C)c(C#N)cc1C(C)C` is 113 to 115 °C; for `CC(C)(C)c1nc(Nc2nc(C(=O)O)cs2)nc(C(C)(C)C)c1O` it is 251 to 253 °C; for `NC(=O)c1cn(Cc2ccccc2Cl)nn1` it is 155 to 158 °C.
Molecule `COc1ccc(CNc2nnc(Cl)c3ccc(C#N)cc23)cc1Cl` registered a melting point of 213 to 214 °C.
For `CN(CC(=O)Nc1ccccc1N)C(=O)OC(C)(C)C`, the melting point was in the range of 134 to 136 °C.
Take `Cc1nc(Cl)c(C#N)c2c1CCCC2`: the melting point worked out at 98 °C.
With `CCOC(=O)c1sc(N)nc1-c1ccc(F)cc1`, the melting point was in the range of 205 to 208 °C.
Consider `CCC1(CC)C(=O)N(C(C)(C)C)CC(C)(C)N1OC(C)c1ccc(CCl)cc1` (stereo not given), for which the melting point was 66 to 68 °C.
`CC(C)(C)COc1ccc(NC(=O)c2cnn(-c3ccc(F)cc3)c2)cc1C#N` came in with a melting point of 196 to 197 °C.
In turn, `Cc1ccccc1-c1c(N)c(=O)oc2cc3c(cc12)CCC3` registered a melting point of 275 to 276 °C.
In turn, `CCN(CC)c1ccc2c(c1)OC(=O)N(c1ccccc1)C2(c1ccc(N(C)C)cc1)c1ccc(N(C)C)cc1` gave a melting point of 206 to 207 °C.
`COc1cc(Cl)c(C(=O)c2ccc([N+](=O)[O-])cc2)c(Cl)c1` gave a melting point of 147 to 150 °C.
`CC(CCC(=O)O)C(=O)N1c2ccccc2CCC1C(=O)O` (stereo not given) showed a melting point of 117 to 119 °C.
For `COC(NC(C)=O)(C(=O)OC(C)(C)C)C(Br)Br` (stereo not given), the melting point is 115 to 116 °C.
The figure for `CCn1cc(-c2ccc3nnn(Cc4ccc5ncccc5c4)c3n2)cn1` is 132 to 134 °C; for `CN(CCCc1ccccc1)[C@H]1CC[C@H](c2ccc([N+](=O)[O-])cc2)CC1` it is 55 to 56 °C.
The figure for `CCCCCC(=N)NC(=O)Nc1ccc(Cl)cc1` is 175 to 179 °C.
For the molecule `O=C(NOCC(O)CN1CCCCC1)Nc1cccc(Cl)c1` (stereo not given), the melting point was in the range of 117 to 118 °C.
`COC1=C(OC)C(=O)C(CCC(=O)N[C@@H](Cc2ccc(O)cc2)C(=O)O)=C(C)C1=O` came in with a melting point of 170 °C.
The figure for `COc1ccc(O)c2c1C(=O)N(Cc1ccccc1)S2=O` (stereo not given) is 235 to 237 °C; for `COc1ccc(OC)c2[nH]ccc12` it is 193 to 195 °C.
The molecule `CCC(Oc1cccc(N(C)C)c1)C(=O)OC1CC(O)C=C2C=CC(C)C(CCC3CC(O)CC(=O)O3)C21` (mixture of isomers) had a melting point of 124 to 126 °C.
`CN(C)C(=O)CC(C)(C)C(=O)O`: the melting point lay in the range of 119 to 121 °C.
As for `CCc1nn(Cc2cccnn2)c(C(N)=O)c1NC(=O)c1cc(S(C)(=O)=O)ccc1OCC(C)C`, the melting point is 196 to 200 °C.
The figure for `CC(=O)SCC(Cc1ccccc1)C(=O)NC(C)(C)C(=O)OCc1ccccc1` (stereo not given) is 83 to 85 °C; for `O=[N+]([O-])c1cc(F)c(Cl)c(Br)c1Cl` it is 51 to 53.5 °C.
Regarding `CC(=NO)c1ccc2c(c1)C(c1ccccc1F)=NC(C)C(=O)N2C` (stereo not given), the melting point lay within 101 to 103 °C.
The molecule `CCCCC(=N)NC(=O)Nc1ccc([N+](=O)[O-])cc1` showed a melting point of 187 to 191 °C.
Consider `c1ccc(Nc2nc(NC3CCC3)c3[nH]cnc3n2)cc1`, for which the melting point is 312 to 314 °C.
As to `COc1cccc([C@H]2O[C@H](CC(=O)Nc3c(C)c(C)c4oc(C(=O)O)cc4c3C)C(=O)N(CC(C)(C)CO)c3ccc(Cl)cc32)c1OC`, the melting point fell in the range of 246 to 248 °C.
In turn, `NC1CCCC(C(=O)N2CCC(c3[nH]nc4c3C(=O)c3c(NC(=O)NN5CCOCC5)cccc3-4)CC2)C1` (stereo not given) gave a melting point of 201 to 203 °C.
The figure for `CSc1ccc(COc2c(C)c(C)c3c(c2C)C(c2ccc(C(C)C)cc2)C(C)(C)O3)cc1` (stereo not given) is 118 to 120 °C; for `O=C(O)c1csc2c(=O)cc(C(F)(F)F)oc12` it is 249 to 251 °C; for `CS(=O)(=O)c1c(C(=O)c2cnoc2C2CC2)ccc2c1OC(F)(F)O2` it is 162 to 163 °C.
On to `CCN1CCN(CCc2ccc(-c3ccc4c(Nc5cc(OC)c(Cl)cc5Cl)c(C#N)cnc4c3)cc2)CC1`, for which the melting point lay in the range of 75 to 78 °C.
For the molecule `COc1ccc(NS(C)(=O)=O)cc1C(=O)O`, the melting point was in the range of 160 to 163 °C.
`NS(=O)(=O)c1ccc(-c2cccc(-c3nc(-c4ccc(Cl)cc4Cl)cc(C(F)(F)F)n3)c2)s1`: the melting point stood at 238 °C.
The figure for `C#CCNC(=O)c1cc(C(=O)OC)c(O)c2ncc(Cc3ccc(F)cc3)cc12` is 192 to 193 °C.
The molecule `Nc1nc(Cn2ncc3cc(C(=O)NC[C@H](NS(=O)(=O)c4cccc5ccccc45)C(=O)O)ccc32)cc(=O)[nH]1` displayed a melting point of 94 to 95 °C.
The figure for `O=C(O)CS(=O)(=O)CCCCCNS(=O)(=O)c1ccc(Cl)cc1` is 193 to 194 °C; for `O=[N+]([O-])c1ccc(-c2ccsc2-c2ccc(F)cc2)cc1` it is 108 to 110 °C.
`C[C@@H]1Cc2cc3c(cc2C(c2ccc([N+](=O)[O-])cc2)=NN1c1cnns1)OCO3` displayed a melting point of 175 to 176 °C.
The figure for `Cc1ccc(-c2nc(Cl)cc(Cl)n2)cc1` is 84 to 85 °C; for `CCOP(=O)(Cc1ccc(NC(=O)CCc2cnoc2-c2ccc(Cl)cc2)cc1)OCC` it is 138 to 139 °C.
For `O=C(Nc1ccc2cc(CN3CCCCC3)ccc2c1)N1CCC(c2ccc(Cl)cc2)CC1`, the melting point is 231 to 232 °C.
Regarding `O=S1(=O)c2cccc3cccc(c23)N1CCCCN1CCN(c2ccc(O)cc2)CC1`, the melting point came to 195 °C.
The figure for `CC(=O)c1ccc(Nc2cccc(-c3ccccn3)c2)c([N+](=O)[O-])c1` is 195 to 196 °C; for `O=C(O)[C@H]1C[C@H](NC(=O)N2CCc3ccccc32)c2c(Cl)cc(Cl)cc2N1` (relative stereo) it is 251 to 252 °C; for `COC(=O)C1(O)CC(O[Si](C)(C)C(C)(C)C)C(O)C(O[Si](C)(C)C(C)(C)C)C1` (stereo not given) it is 82 to 82.5 °C.
`COc1ccc(-c2[nH]nc3c2C(=O)c2c(NC(=O)NCc4ccc(N)cc4)cccc2-3)cc1`: the melting point was above 300 °C.
`COc1cccc(Nc2nccc(-c3sc(N)nc3-c3ccccc3)n2)c1` displayed a melting point of 115 to 117 °C.
On to `Cn1c(=O)c2[nH]c(C3CCSC3)nc2n(C)c1=O` (stereo not given), for which the melting point was 217 to 219 °C.
As to `O=C(NC1CCOCC1)c1ccc(-c2cc(-c3c[nH]nc3-c3ccccn3)ccn2)cc1`, the melting point stood at 248 °C.
`Cc1cc(O)c(C)c(O)c1C#N` gave a melting point of 162 to 163 °C.
On to `C=C(C)n1c(=O)n(CCN2CCC(N(C)C(=O)c3ccccc3)CC2)c2ccccc21`, for which the melting point was in the range of 120 to 122 °C.
Regarding `C/C=C(\Br)C(=O)Nc1cccc(F)c1`, the melting point is 44 to 45.5 °C.
The figure for `COC(=O)CCc1ccc(N2CCN(c3ccc(CCN)cc3)C2=O)cc1` is above 200 °C.
As for `Cc1cc(C)c2c(c1O)C(=O)C(C)(Cc1ccccc1)C2` (stereo not given), the melting point was in the range of 86 to 87 °C.
`COc1ccc(C(=C/C=C/C(=O)Nc2cccc3cnccc23)c2ccc(OC)cc2)cc1` displayed a melting point of 197 to 199 °C.
The figure for `COc1cc2c(cc1Nc1ncc(Cl)c(N[C@H]3[C@@H](C(N)=O)[C@@H]4C=C[C@H]3C4)n1)CCN(CC(=O)N1CCN(C)CC1)CC2` is 190 °C; for `N#Cc1ccc(OCc2ccsc2)cc1F` it is 63 to 65 °C.
The molecule `COC(=O)c1nc(C)c(-c2ccnc3ccccc23)s1` came in with a melting point of 116 to 117 °C.
For `CCCCCCCCC(O)CNCCNCC(O)CCCCCCCC` (stereo not given), the melting point fell in the range of 140 to 146 °C.
Take `Nc1nc(Cl)cc(NCC2(CO)CC(O)C2)n1` (stereo not given): the melting point fell in the range of 136 to 139 °C.
The figure for `COc1ccc(N2CCN(c3ccc(OC)nc3-c3ccc(OCC(F)(F)F)cc3)CC2)cc1` is 104 to 107 °C; for `CN(CC(F)(F)F)C(=O)COc1nc2ccccc2o1` it is 92 °C.
The molecule `CC(C)(OCc1nn(Cc2ccccc2)c2ccccc12)C(=O)NNC(N)=O` yielded a melting point of 174 to 175 °C.
The figure for `CCOC(=O)c1cn(-c2nc(NC)c(F)cc2F)c2c(Cl)c(F)c(F)cc2c1=O` is 207 to 209 °C; for `COc1ccc(CNN2C(=O)CC(C)c3cnc(SC)nc32)cc1Cl` (stereo not given) it is 118 to 120 °C.
`COCc1cnc2c([N+](=O)[O-])cc(C)cc2c1Cl` returned a melting point of 107 to 111 °C.
The figure for `CS(=O)(=O)Nc1ccccc1NC1=CC=NC(Nc2ccc3c(c2)CNCCS3)N1Cl` (stereo not given) is 141 to 143 °C.
In turn, `COc1ccc(-c2cc(OCc3ccccc3)c(=O)n(C)c2-c2ccncc2)cc1` gave a melting point of 127 to 130 °C.
In turn, `Cc1[nH]c(C(=O)N2CCN(c3ccccc3)CC2)c(C)c1-c1nc2ccc(C(=O)c3ccccc3)cc2[nH]1` had a melting point of 145 to 147 °C.
For `NC(CC(=O)NC1CC1)C1CC1` (stereo not given), the melting point lay within 116 to 118 °C.
In the case of `O=C(NCCc1c[nH]c2ccccc12)Oc1ccccc1`, the melting point was 44 to 46 °C.
The figure for `CCOC(=O)c1ccc(OCCCCCCCCCCCCCCCOc2ccc(Cl)cc2)cc1` is 84 to 85 °C.

The record behind these values is a melting point compilation (Tetko et al.; mined from patent text by program, amines drawn as free bases though some values may be those of a salt).
